Measurements as given in US8603975B2, “Cyclic peptide compounds” (priority 2007, dated 2013).
*1 amine or outer side, *2 acyl side, *3 side chain or, on linkers, in order; H or OH if unused. Where a SMILES comes first, the peptide text is derived from it. [ ]: non-standard residue; d: D form. The star is where a group is joined. X1 = C[C@H](COC(=O)N(C)c1ccccn1)C[C@@H](C(=O)[*:2])N(C)[*:1]; X2 = COCCN(CCOC)C(=O)OC[C@@H](C)C[C@@H](C(=O)[*:2])N(C)[*:1]; X4 = C[C@H](COC(=O)N(C)c1cccnc1)C[C@@H](C(=O)[*:2])N(C)[*:1]; X3 = C[C@H](COC(=O)N1CCN(C)CC1)C[C@@H](C(=O)[*:2])N(C)[*:1]; X6 = C[C@H](COC(=O)N1CCOCC1)C[C@@H](C(=O)[*:2])N(C)[*:1]; NMe(dihydroBmt) = CCCC[C@@H](C)[C@@H](O)[C@H](NC)C(=O)O; X7 = C[C@H](COC(=O)[*:3])C[C@@H](C(=O)[*:2])N(C)[*:1]; MeBmt = C/C=C/C[C@@H](C)[C@@H](O)[C@H](NC)C(=O)O; NMeL = CN[C@@H](CC(C)C)C(=O)O; X8 = CN(c1cnn(CCN2CCOCC2)c1)*; NMeV = CN[C@H](C(=O)O)C(C)C; Sar = CNCC(=O)O

Each compound was assayed against HCV replicon. Conditions: HCV replicon cells, D-MEM with 5% fetal bovine serum, luciferase activity after two more days of cultivation, 50% enzyme activity level to control (DMSO only).
Type: cell-based, hepatitis C virus
Protocol: It is thought that the replication mechanism of the subgenomic HCV RNA in these cell lines is extremely similar to the replication of full length HCV RNA genome in hepatic cells infected with HCV.
The inhibitory activity of the test compounds against the replication of HCV replicon was evaluated by quantifying the activity of luciferase, a reporter gene product encoded in the replicon system reported by Yokota et al., EMBO J 4: 602-608 (2003). The enzyme assay was carried out according to the technical manual of the Steady-Glo(trade mark) luciferase assay system (Promega). The replicon assay was carried out with the modified method reported by Lohmann et al., Science 285: 110 (1999). The details are described in the following.
6×10^3 HCV replicon cells in D-MEM medium containing 5% fetal bovine serum were seeded in each well of a 96-well microtiter plate (Corning Inc.). After the cells were incubated at 37° C. for 16 hours in 5% CO2, the test compound was added.
After cultivation for two more days, the culture medium was removed and 25 μl of Glo Lysis buffer was added to each well and incubated for 5 minutes. Allowing lysis to occur, 25 μl of Steady-Glo(trade mark) assay reagent was added to each well. After incubation for 5 minutes, the luminescence was measured with a luminometer, Mithras LB940 (BERTHOLD TECHNOLOGIES GmbH & Co.KG) following the manufacturer's instructions.
The luciferase activities in replicon cells treated at each concentrations of the compound were employed for the calculation of EC50 value of the each compound, which gave the compound concentration indicating 50% enzyme activity level to the control (no drug group, containing only DMSO).

SMILES	HCV replicon replication inhibitory activity: EC50
C/C=C/C[C@@H](C)[C@@H](O)[C@H]1C(=O)N[C@@H]([C@@H](C)O)C(=O)N(C)CC(=O)N(C)[C@@H](CC(C)C)C(=O)N[C@@H](CC(C)C)C(=O)N(C)[C@@H](CC(C)C)C(=O)N[C@@H](C)C(=O)N[C@H](C)C(=O)N(C)[C@@H](C[C@H](C)COC(=O)N2CCOCC2)C(=O)N[C@@H](CC(C)C)C(=O)N(C)[C@@H](C(C)C)C(=O)N1C [Ex 1] (cyclo([MeBmt]T[Sar][NMeL]L[NMeL]A[dA][X6]L[NMeV]))	0.15 µg/mL
C/C=C/C[C@@H](C)[C@@H](O)[C@H]1C(=O)N[C@@H]([C@@H](C)O)C(=O)N(C)CC(=O)N(C)[C@@H](CC(C)C)C(=O)N[C@@H](CC(C)C)C(=O)N(C)[C@@H](CC(C)C)C(=O)N[C@@H](C)C(=O)N[C@H](C)C(=O)N(C)[C@@H](C[C@H](C)COC(=O)N2CCN(C)CC2)C(=O)N[C@@H](CC(C)C)C(=O)N(C)[C@@H](C(C)C)C(=O)N1C [Ex 8] (cyclo([MeBmt]T[Sar][NMeL]L[NMeL]A[dA][X3]L[NMeV]))	0.16 µg/mL
C/C=C/C[C@@H](C)[C@@H](O)[C@H]1C(=O)N[C@@H]([C@@H](C)O)C(=O)N(C)CC(=O)N(C)[C@@H](CC(C)C)C(=O)N[C@@H](CC(C)C)C(=O)N(C)[C@@H](CC(C)C)C(=O)N[C@@H](C)C(=O)N[C@H](C)C(=O)N(C)[C@@H](C[C@H](C)COC(=O)N(CCOC)CCOC)C(=O)N[C@@H](CC(C)C)C(=O)N(C)[C@@H](C(C)C)C(=O)N1C [Ex 10] (cyclo([MeBmt]T[Sar][NMeL]L[NMeL]A[dA][X2]L[NMeV]))	0.18 µg/mL
C/C=C/C[C@@H](C)[C@@H](O)[C@H]1C(=O)N[C@@H]([C@@H](C)O)C(=O)N(C)CC(=O)N(C)[C@@H](CC(C)C)C(=O)N[C@@H](CC(C)C)C(=O)N(C)[C@@H](CC(C)C)C(=O)N[C@@H](C)C(=O)N[C@H](C)C(=O)N(C)[C@@H](C[C@H](C)COC(=O)N(C)c2cnn(CCN3CCOCC3)c2)C(=O)N[C@@H](CC(C)C)C(=O)N(C)[C@@H](C(C)C)C(=O)N1C [Ex 36] (cyclo([MeBmt]T[Sar][NMeL]L[NMeL]A[dA][X7](X8)L[NMeV]))	0.09 µg/mL
C/C=C/C[C@@H](C)[C@@H](O)[C@H]1C(=O)N[C@@H]([C@@H](C)O)C(=O)N(C)CC(=O)N(C)[C@@H](CC(C)C)C(=O)N[C@@H](CC(C)C)C(=O)N(C)[C@@H](CC(C)C)C(=O)N[C@@H](C)C(=O)N[C@H](C)C(=O)N(C)[C@@H](C[C@H](C)COC(=O)N(C)c2cccnc2)C(=O)N[C@@H](CC(C)C)C(=O)N(C)[C@@H](C(C)C)C(=O)N1C [Ex 39] (cyclo([MeBmt]T[Sar][NMeL]L[NMeL]A[dA][X4]L[NMeV]))	0.12 µg/mL
C/C=C/C[C@@H](C)[C@@H](O)[C@H]1C(=O)N[C@@H]([C@@H](C)O)C(=O)N(C)[C@H](COC)C(=O)N(C)[C@@H](CC(C)C)C(=O)N[C@@H](CC(C)C)C(=O)N(C)[C@@H](CC(C)C)C(=O)N[C@@H](C)C(=O)N[C@H](C)C(=O)N(C)[C@@H](C[C@H](C)COC(=O)N(C)CCOC)C(=O)N[C@@H](CC(C)C)C(=O)N(C)[C@@H](C(C)C)C(=O)N1C [Ex 84]	0.053 µg/mL
C/C=C/C[C@@H](C)[C@@H](O)[C@H]1C(=O)N[C@@H]([C@@H](C)O)C(=O)N(C)[C@H](C)C(=O)N(C)[C@@H](CC(C)C)C(=O)N[C@@H](CC(C)C)C(=O)N(C)[C@@H](CC(C)C)C(=O)N[C@@H](C)C(=O)N[C@H](C)C(=O)N(C)[C@@H](C[C@H](C)COC(=O)N2CCC(C)(OCC)CC2)C(=O)N[C@@H](CC(C)C)C(=O)N(C)[C@@H](C(C)C)C(=O)N1C [Ex 124]	0.056 µg/mL
C/C=C/C[C@@H](C)[C@@H](O)[C@H]1C(=O)N[C@@H]([C@@H](C)O)C(=O)N(C)[C@H](C)C(=O)N(C)[C@@H](CC(C)C)C(=O)N[C@@H](CC(C)C)C(=O)N(C)[C@@H](CC(C)C)C(=O)N[C@@H](C)C(=O)N[C@H](C)C(=O)N(C)[C@@H](C[C@H](C)COC(=O)N2CCSCC2)C(=O)N[C@@H](CC(C)C)C(=O)N(C)[C@@H](C(C)C)C(=O)N1C [Ex 130]	0.031 µg/mL
C/C=C/C[C@@H](C)[C@@H](O)[C@H]1C(=O)N[C@@H]([C@@H](C)O)C(=O)N(C)[C@H](C)C(=O)N(C)[C@@H](CC(C)C)C(=O)N[C@@H](CC(C)C)C(=O)N(C)[C@@H](CC(C)C)C(=O)N[C@@H](C)C(=O)N[C@H](C)C(=O)N(C)[C@@H](C[C@H](C)COC(=O)N(C)CC(F)(F)F)C(=O)N[C@@H](CC(C)C)C(=O)N(C)[C@@H](C(C)C)C(=O)N1C [Ex 145]	0.022 µg/mL
C/C=C/C[C@@H](C)[C@@H](O)[C@H]1C(=O)N[C@@H]([C@@H](C)O)C(=O)N(C)[C@H](COC)C(=O)N(C)[C@@H](CC(C)C)C(=O)N[C@@H](CC(C)C)C(=O)N(C)[C@@H](CC(C)C)C(=O)N[C@@H](C)C(=O)N[C@H](C)C(=O)N(C)[C@@H](C[C@H](C)COC(=O)N2CC[C@H](OC)C2)C(=O)N[C@@H](CC(C)C)C(=O)N(C)[C@@H](C(C)C)C(=O)N1C [Ex 151]	0.035 µg/mL
CCCC[C@@H](C)[C@@H](O)[C@H]1C(=O)N[C@@H]([C@@H](C)O)C(=O)N(C)CC(=O)N(C)[C@@H](CC(C)C)C(=O)N[C@@H](CC(C)C)C(=O)N(C)[C@@H](CC(C)C)C(=O)N[C@@H](C)C(=O)N[C@H](C)C(=O)N(C)[C@@H](C[C@H](C)COC(=O)N(C)c2ccccn2)C(=O)N[C@@H](CC(C)C)C(=O)N(C)[C@@H](C(C)C)C(=O)N1C [Ex 249] (cyclo([NMe(dihydroBmt)]T[Sar][NMeL]L[NMeL]A[dA][X1]L[NMeV]))	0.07 µg/mL
